According to patent US8455649B2, “Insecticidal substituted azinyl derivatives” (Dow AgroSciences, LLC, priority 2007, dated 2013):

Columns and labels:
[1] = tested on: Corn Earworm (Helicoverpa zea); experiment: Insecticidal diet-surface test for corn earworm; assay type: in vivo; conditions: 120 h, second-instar larvae on treated diet, 50 μg/cm^2 on diet surface, 5 days after treatment, 8 insects per treatment, read-out: HELIZE AVG % Mortality (50 μg/cm^2)
Description: (§1) The compounds identified in Table 1 were tested against beet armyworm and corn earworm as follows:
(§2) Insecticidal Test for Corn Earworm (Helicoverpa zea) and Beet Armyworm (Spodoptera exigua).
(§3) To prepare test solution, the test compound was formulated at 2000 ppm solution as 4 mg/2 mL of 9 acetone:1 tap water. 50 μL of the 2000 ppm (equivalent to 50 μg/cm^2 dose on diet surface area) test solution was pipetted upon the surface of 1 mL of lepidopteran diet (Southland Multi-Species Lepidopteran Diet) contained in each of eight wells per insect species (one well=1 replication). A second-instar corn earworm and beet armyworm was placed upon the treated diet in each well once the solvent had air-dried. Trays containing the treated diet and larvae were covered and then held in a growth chamber at 25° C., 50-55% RH, and 16 hr light:8 hr dark for 5 days. Observation were conducted 5 days after treatment and infestation. The number of dead insects of 8 per species per treatment was then determined and the results are given in Table 2 as a percent control at a dose of […].

[2] = tested on: Beet Armyworm (Spodoptera exigua); experiment: Insecticidal diet-surface test for beet armyworm; assay type: in vivo; conditions: 120 h, second-instar larvae on treated diet, 50 μg/cm^2 on diet surface, 5 days after treatment, 8 insects per treatment, read-out: LAPHEG AVG % Mortality (50 μg/cm^2)
Description: as §1, §2, §3

Work on FC(F)(F)COc1cc(OCC(F)(F)F)nc(NC(=S)Nc2ccc(C(F)(F)F)cc2)n1 [Compound 130] yielded a mortality at 50 µg/cm2 [1] of 100% and a mortality at 50 µg/cm2 [2] of 100%.
For CN(C(=O)Nc1nc(OCC(F)(F)F)cc(OCC(F)(F)F)n1)c1ccc(C#N)cc1 [Compound 83], the mortality at 50 µg/cm2 [1] was 100% and the mortality at 50 µg/cm2 [2] was 100%.
O=C(Nc1ccc(OC(F)(F)F)cc1)Nc1nc(OCC(F)(F)F)c(Cl)c(OCC(F)(F)F)n1 [Compound 136] showed a mortality at 50 µg/cm2 [1] of 100% and a mortality at 50 µg/cm2 [2] of 100%.
Work on CN(C(=O)Nc1nc(OCC(F)(F)F)cc(OCC(F)(F)F)n1)c1ccc(Cl)cc1Cl [Compound 149] yielded a mortality at 50 µg/cm2 [1] of 100% and a mortality at 50 µg/cm2 [2] of 100%.
Work on CN(C(=O)Nc1nc(OCC(F)(F)F)cc(OCC(F)(F)F)n1)c1ccc(F)cn1 [Compound 125] yielded a mortality at 50 µg/cm2 [1] of 100% and a mortality at 50 µg/cm2 [2] of 88%.
O=C(Nc1ccc(Cl)cc1)Nc1nc(OCC(F)(F)F)cc(OCC(F)(F)F)n1 [Compound 20] gave a mortality at 50 µg/cm2 [1] of 100% and a mortality at 50 µg/cm2 [2] of 100%.
With CN(C(=O)Nc1cc(OCC(F)(F)F)nc(OCC(F)(F)F)n1)c1ccc([N+](=O)[O-])cc1 [Compound 111] the mortality at 50 µg/cm2 [1] was 88% and the mortality at 50 µg/cm2 [2] was 100%.
CN(C(=O)Nc1nc(OCC(F)(F)F)cc(OCC(F)(F)F)n1)c1ccc(Br)cc1 [Compound 41, N′-[4,6-bis(2,2,2-trifluoroethoxy)pyrimidin-2-yl]-N-methyl-N-(4-bromophenyl)urea] gave a mortality at 50 µg/cm2 [1] of 100% and a mortality at 50 µg/cm2 [2] of 100%.
Molecule CN(C(=O)Nc1nc(OCC(F)(F)F)cc(OCC(F)(F)F)n1)c1ccc(C(F)(F)C(F)(F)F)cc1 [Compound 152] has a mortality at 50 µg/cm2 [1] of 100% and a mortality at 50 µg/cm2 [2] of 100%.
For Cc1c(OCC(F)(F)F)nc(NC(=O)Nc2ccc(C(F)(F)F)nc2)nc1OCC(F)(F)F [Compound 143], the mortality at 50 µg/cm2 [1] was 100% and the mortality at 50 µg/cm2 [2] was 100%.
CN(C(=O)Nc1nc(OCC(F)(F)F)cc(OCC(F)(F)F)n1)c1ccc(S(=O)(=O)C(F)(F)F)cc1 [Compound 94] showed a mortality at 50 µg/cm2 [1] of 100% and a mortality at 50 µg/cm2 [2] of 100%.
O=C(Nc1ccc(C(F)(F)F)cc1)Nc1nc(OCC(F)(F)F)cc(OCC(F)(F)F)n1 [Compound 1, N′-[4,6-bis(2,2,2-trifluoroethoxy)pyrimidin-2-yl]-N-[4-(trifluoro-methyl)phenyl]urea] gave a mortality at 50 µg/cm2 [1] of 100% and a mortality at 50 µg/cm2 [2] of 100%.
For CN(C(=O)Nc1nc(OCC(F)(F)C(F)(F)F)cc(OCC(F)(F)C(F)(F)F)n1)c1ccc(C(F)(F)F)cc1 [Compound 176], the mortality at 50 µg/cm2 [1] was 100% and the mortality at 50 µg/cm2 [2] was 100%.
Molecule COCN(C(=O)Nc1nc(OCC(F)(F)F)cc(OCC(F)(F)F)n1)c1ccc(C(F)(F)F)cc1 [Compound 39] has a mortality at 50 µg/cm2 [1] of 100% and a mortality at 50 µg/cm2 [2] of 100%.
Molecule N#CCN(C(=O)Nc1nc(OCC(F)(F)F)cc(OCC(F)(F)F)n1)c1ccc(OC(F)(F)F)cc1 [Compound 77] has a mortality at 50 µg/cm2 [1] of 100% and a mortality at 50 µg/cm2 [2] of 100%.
O=C(Nc1ccc(Br)cc1)Nc1nc(OCC(F)(F)F)c(Cl)c(OCC(F)(F)F)n1 [Compound 137] was tested, and the mortality at 50 µg/cm2 [1] was 100% and the mortality at 50 µg/cm2 [2] was 88%.
N#Cc1ccc(NC(=O)Nc2nc(OCC(F)(F)F)cc(OCC(F)(F)F)n2)cc1 [Compound 4] gave a mortality at 50 µg/cm2 [1] of 100% and a mortality at 50 µg/cm2 [2] of 0%.
Molecule O=C(Nc1ccc(OC(F)(F)C(F)F)cc1)Nc1nc(OCC(F)(F)F)cc(OCC(F)(F)F)n1 [Compound 14] has a mortality at 50 µg/cm2 [1] of 100% and a mortality at 50 µg/cm2 [2] of 100%.
CN(C(=O)Nc1nc(OCC(F)(F)F)cc(OCC(F)(F)F)n1)c1ccc(C(F)(F)F)cc1Cl [Compound 160] was tested, and the mortality at 50 µg/cm2 [1] was 100% and the mortality at 50 µg/cm2 [2] was 100%.
For O=C(Nc1ccc(Br)nc1)Nc1cc(C(F)(F)F)cc(OCC(F)(F)F)n1 [Compound 171], the mortality at 50 µg/cm2 [1] was 100% and the mortality at 50 µg/cm2 [2] was 100%.
In the case of O=C(Nc1ccc(C(F)(F)F)cc1)Nc1nc(OCC(F)(F)C(F)F)cc(OCC(F)(F)C(F)F)n1 [Compound 175], the mortality at 50 µg/cm2 [1] is reported as 100% and the mortality at 50 µg/cm2 [2] is reported as 100%.
With CN(C(=O)Nc1nc(OCC(F)(F)F)cc(OCC(F)(F)F)c1F)c1ccc(OC(F)(F)F)cc1 [Compound 185] the mortality at 50 µg/cm2 [1] was 100% and the mortality at 50 µg/cm2 [2] was 100%.
Molecule CN(C(=O)Nc1nc(OCC(F)(F)F)cc(OCC(F)(F)F)n1)c1ccc(F)cc1F [Compound 150] has a mortality at 50 µg/cm2 [1] of 75% and a mortality at 50 µg/cm2 [2] of 100%.
For CN(C(=O)Nc1nc(OCC(F)(F)F)cc(OCC(F)(F)F)n1)c1ccc(OCC(F)F)cc1 [Compound 71], the mortality at 50 µg/cm2 [1] was 100% and the mortality at 50 µg/cm2 [2] was 100%.
O=C(Nc1ccc(Br)cc1)Nc1nc(OCC(F)(F)F)cc(OCC(F)(F)F)n1 [Compound 22] was tested, and the mortality at 50 µg/cm2 [1] was 100% and the mortality at 50 µg/cm2 [2] was 100%.
For CN(C(=O)Nc1nc(OCC(F)(F)F)cc(OCC(F)(F)F)n1)c1ccc(Br)cn1 [Compound 123], the mortality at 50 µg/cm2 [1] was 100% and the mortality at 50 µg/cm2 [2] was 100%.
COCCOCN(C(=O)N(COCc1ccccc1)c1nc(OCC(F)(F)F)cc(OCC(F)(F)F)n1)c1ccc(C(F)(F)F)cc1 [Compound 52] gave a mortality at 50 µg/cm2 [1] of 100% and a mortality at 50 µg/cm2 [2] of 100%.
CN(C(=O)Nc1nc(OCC(F)(F)F)cc(OCC(F)(F)F)c1F)c1ccc(Br)cc1 [Compound 183, N′-[3-fluoro-4,6-bis(2,2,2-trifluoroethoxy)pyridin-2-yl]-N-methyl-N-(4-bromophenyl)urea] showed a mortality at 50 µg/cm2 [1] of 50% and a mortality at 50 µg/cm2 [2] of 100%.
COCN(C(=O)Nc1nc(OCC(F)(F)F)cc(OCC(F)(F)F)n1)c1ccc(OC(F)(F)F)cc1 [Compound 45] was tested, and the mortality at 50 µg/cm2 [1] was 100% and the mortality at 50 µg/cm2 [2] was 100%.
Molecule COC(=O)c1ccc(N(C)C(=O)Nc2nc(OCC(F)(F)F)cc(OCC(F)(F)F)n2)cc1 [Compound 82] has a mortality at 50 µg/cm2 [1] of 0% and a mortality at 50 µg/cm2 [2] of 100%.
For O=C(Nc1cc(OCC(F)(F)F)nc(OCC(F)(F)F)n1)N(CCF)c1ccc(OC(F)(F)F)cc1 [Compound 114], the mortality at 50 µg/cm2 [1] was 100% and the mortality at 50 µg/cm2 [2] was 100%.
O=C(Nc1ccc(C(F)(F)F)nc1)Nc1nc(OCC(F)(F)F)cc(OCC(F)(F)F)n1 [Compound 24] showed a mortality at 50 µg/cm2 [1] of 100% and a mortality at 50 µg/cm2 [2] of 100%.
Work on CN(C(=O)Nc1nc(OCC(F)(F)F)nc(OCC(F)(F)F)n1)c1ccc(Cl)cc1 [Compound 121, N′-[4,6-bis(2,2,2-trifluoroethoxy)-1,3,5-triazin-2-yl]-N-(4-chlorophenyl)-N-methylurea] yielded a mortality at 50 µg/cm2 [1] of 100% and a mortality at 50 µg/cm2 [2] of 100%.
Molecule CN(C(=O)Nc1nc(OCC(F)(F)F)cc(OCC(F)(F)F)n1)c1ccc(F)cc1 [Compound 86] has a mortality at 50 µg/cm2 [1] of 100% and a mortality at 50 µg/cm2 [2] of 100%.
With CN(C(=O)Nc1cc(C(F)(F)F)cc(OCC(F)(F)F)n1)c1ccc(Br)cc1 [Compound 167] the mortality at 50 µg/cm2 [1] was 100% and the mortality at 50 µg/cm2 [2] was 50%.
With CN(C(=O)Nc1nc(OCC(F)(F)F)cc(OCC(F)(F)F)n1)c1ccc(C(F)(F)F)nc1 [Compound 47] the mortality at 50 µg/cm2 [1] was 100% and the mortality at 50 µg/cm2 [2] was 100%.
CN(C(=O)Nc1nc(OCC(F)(F)F)cc(OCC(F)(F)F)n1)c1ccc(OC(F)(F)C(F)F)cc1 [Compound 29] was tested, and the mortality at 50 µg/cm2 [1] was 100% and the mortality at 50 µg/cm2 [2] was 100%.
With O=C(Nc1ccc(Br)nc1)Nc1nc(OCC(F)(F)F)c(Cl)c(OCC(F)(F)F)n1 [Compound 146] the mortality at 50 µg/cm2 [1] was 100% and the mortality at 50 µg/cm2 [2] was 100%.
COCN(C(=O)N(COCc1ccccc1)c1nc(OCC(F)(F)F)cc(OCC(F)(F)F)n1)c1ccc(Br)cc1 [Compound 68] was tested, and the mortality at 50 µg/cm2 [1] was 100% and the mortality at 50 µg/cm2 [2] was 100%.
